Among the data in patent US9783545B2, “Pyrazolopyridazines and methods for treating retinal-degenerative diseases and hearing loss associated with usher syndrome” (Usher III Initiative, Inc., priority 2012, dated 2017) are IC50 and EC50 values, retold here.

Test [1] addresses T1, N48K Clarin-1 (Homo sapiens, UniProt P58418, N48K).
T1 construct: expressed in transfected cells
T1 sequence (P58418 1-232 N48K): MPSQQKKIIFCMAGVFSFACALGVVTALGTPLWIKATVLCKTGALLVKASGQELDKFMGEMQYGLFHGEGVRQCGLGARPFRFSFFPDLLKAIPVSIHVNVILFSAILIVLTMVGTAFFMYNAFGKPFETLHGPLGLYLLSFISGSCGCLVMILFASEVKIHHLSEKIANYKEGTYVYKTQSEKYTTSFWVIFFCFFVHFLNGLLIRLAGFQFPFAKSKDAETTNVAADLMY
Nature of the test: Restoration of expression of N48K Clarin-1, 2 hour incubation then 22 hr fresh medium (high content imaging of HA-tagged N48K Clarin-1). The test is classed as cell-based. To be noted: HEK293-Clarin-1 N48K-HA D9 cell line, 2 hr incubation with compound, then 22 hr in fresh medium. The procedure:
An Assay Method Showing Activity of Compounds of the Invention that Restore Expression of N48K Clarin-1(2 hour incubation)
(§1) Clarin-1 is the protein encoded by the gene mutated in Usher III Syndrome (Adato et al., 2002). The most prevalent mutation in Clarin-1 in North America is N48K, which is reported to cause loss of glycosylation and a trafficking defect (Tian et al., 2009). […] Thus it is believed that restoring the trafficking of N48K Clarin-1 to the cell surface provides an avenue of intervention for Usher III Sydrome.
(§2) In a typical experiment, these cells were seeded on collagen-coated 96-well plates at a cell density of 20,000 cells per well in Dulbecco's Modified Eagle Medium (DMEM) contain 10% fetal bovine serum in a humidified incubator at 37° C., 5% CO2. After an overnight incubation, compounds were added for a 2 hr incubation in DMEM medium contain 10% fetal bovine serum in a humidified incubator at 37° C., 5% CO2. As a negative control, DMSO was used at 0.25% final concentrations. Compounds were typically tested in triplicate fashion. After the 2 hr incubation with compounds, the cells were incubated in fresh medium for 22 hr. The cells were then fixed by the addition of 10% buffered formalin to the wells to achieve a final concentration of 4% formalin. After a 20 min fixation at room temperature, wells were washed three times with phosphate-buffered saline (PBS) containing Triton X-100 (0.02 phosphate, 150 mM NaCl, 0.1% Triton X-100).
(§3) The HA-tagged N48K Clarin-1 was detected with an antibody against the HA tag (HA.11 Clone 16B12 Monoclonal antibody, Covance #MMS-101P) at a dilution of 1:1000 in PBS containing Triton X-100. After a 90 min incubation, wells were washed three times with PBS containing Triton X-100, and a secondary antibody (Goat anti-mouse IgG-Cy3 (1.5 mg/ml), Jackson IR Europe #115165003) was added to the wells at a dilution of 1:250 in PBS containing Triton X-100 for 45 min. Wells were subsequently washed three times with PBS containing Triton X-100, and a final staining for nuclei was performed by the addition of DAPI (4′,6-diamidino-2-phenylindole) at a dilution of 1:10,000. The imaging of the stained cells was performed on an InCell 1000 High Content Imager (GE Healthcare), reading out the Cy3 channel for N48K Clarin-1 and the DAPI channel for nuclei. The images are analyzed and quantitated using a specific algorithm. This algorithm measured the HA-Clarin-1 staining for each cell based on the additional nuclear segmentation of the DAPI signal (FIG. 1). This algorithm measured the intensity per cell, and thus it is less sensitive for variation in cell number. Per well, approximately 2,000 cells were measured to achieve an average density per cell measurement.

For test [2], the target named is T1, N48K Clarin-1. As to the kind of experiment: Restoration of expression of N48K Clarin-1, 24 hour incubation (high content imaging of HA-tagged N48K Clarin-1). The format is cell-based. Conditions: HEK293-Clarin-1 N48K-HA D9 cell line, 24 hr incubation with compound; read-out: IC50 (the source's name). Here is the method: Assay Method Showing Activity of Compounds of the Invention that Restore Expression of N48K Clarin-1 (24 hour incubation)
as §1
as §2, with “for a 24 hr incubation” for “for a 2 hr incubation”, “After the 24 hr incubation” for “After the 2 hr incubation”, “cells were fixed by” for “cells were incubated in fresh medium for 22 hr. The cells were then fixed by”
as §3, with “images were” for “images are”, “measurement. FIG. 1 illustrates high content analysis. DAPI-stained nuclei are used to perform segmentation of the image into individual cells. The density observed in the N48K Clarin-1 channel (Cy3) is then calculated per cell averaged over a field.” for “measurement.”

Turning to `Cn1nc(-c2ccccc2)c2c(Cl)c(I)nnc21` [IIIa, 4-chloro-5-iodo-1-methyl-3-phenyl-pyrazolo[3,4-c]pyridazine], at N48K Clarin-1 [1], the IC50 (usually the concentration that gives 50% inhibition) was 4 to 8 µM.

For `Cn1nc(-c2ccccc2)c2c(Cl)c(C3=CCCC3)nnc21` [IIIb, 4-chloro-5-(cyclopenten-1-yl)-1-methyl-3-phenyl-pyrazolo[3,4-c]pyridazine], the IC50 at N48K Clarin-1 [1] is 4 to 8 µM. On to `F[C@H]1CCN(CCn2nc(-c3ccccc3)c3c(Cl)c(-c4ccccc4)nnc32)C1` [IIt, 4-chloro-1-[2-[(3S)-3-fluoropyrrolidin-1-yl]ethyl]-3,5-diphenyl-pyrazolo[3,4-c]pyridazine], for which, at N48K Clarin-1 [1], the IC50 was not above 4 µM. With `F[C@@H]1CCN(CCn2nc(-c3ccccc3)c3c(Cl)c(-c4ccccc4)nnc32)C1` [IIu, 4-chloro-1-[2-1[(3R)-3-fluoropyrrolidin-1-yl]ethyl]-3,5-diphenyl-pyrazolo[3,4-c]pyridazine], on N48K Clarin-1 [1], the 50% inhibitory concentration (IC50) is not above 4 µM. Still for that read-out and setting: the same measure for `FC1(F)CCN(CCn2nc(-c3ccccc3)c3c(Cl)c(-c4ccccc4)nnc32)C1` [IIv, 4-chloro-1-[2-(3,3-difluoropyrrolidin-1-yl)ethyl]-3,5-diphenyl-pyrazolo[3,4-c]pyridazine]: 4 to 8 µM. Turning to `FC1(F)CN(CCn2nc(-c3ccccc3)c3c(Cl)c(-c4ccccc4)nnc32)C1` [IIw, 4-chloro-1-[2-(3,3-dilluoroazetidin-1-yl)ethyl]-3,5-diphenyl-pyrazolo[3,4-c]pyridazine], the IC50 at N48K Clarin-1 [1] was in the range of 4 to 8 µM.

On to `Fc1cccc(-c2nn(CCN3CC[C@@H](F)C3)c3nnc(-c4ccccc4)c(Cl)c23)c1` [IIx, 4-chloro-3-(3-fluorophenyl)-1-[2-[(3R)-3-fluoropyrrolidin-1-yl]ethyl]-5-phenyl-pyrazolo[3,4-c]pyridazine], for which the 50% inhibitory concentration (IC50) on N48K Clarin-1 [1] was not above 4 µM. For the compound `Fc1ccc(-c2nn(CCN3CC[C@@H](F)C3)c3nnc(-c4ccccc4)c(Cl)c23)cc1` [IIy, 4-chloro-3-(4-fluorophenyl)-1-[2-[(3R)-3-fluoropyrrolidin-1-yl]ethyl]-5 phenyl-pyrazolo[3,4-c]pyridazine], the IC50 at N48K Clarin-1 [1] was not above 4 µM. Same read-out and setting: the same measure for `Cc1ccc(-c2nn(CCN3CCN(C)CC3)c3nnc(-c4ccccc4)c(Cl)c23)s1` [Icc, 4-chloro-1-[2-(4-methylpiperazin-1-yl)ethyl]-3-(5-methyl-2-thienyl)-5-phenyl-pyrazolo[3,4-c]pyridazine]: not above 4 µM. On to `CN1CCN(CCn2nc(-c3cc4ccccc4[nH]3)c3c(Cl)c(-c4ccccc4)nnc32)CC1` [Im, 4-chloro-3-(1H-indol-2-yl)-1-(2-(4-methylpiperazin-1-yl)ethyl)-5-phenyl-1H-pyrazolo[3,4-c]pyridazine], for which the EC50 on N48K Clarin-1 [2] is not above 2 µM. Consider `O=C(Cn1nc(C2=CCCC2)c2c(Cl)c(-c3ccccc3)nnc21)N1CCCC1` [In, 2-(4-chloro-3-(cyclopent-1-en-1-yl)-5-phenyl-1H-pyrazolo[3,4-c]pyridazin-1-yl)-1-(pyrrolidin-1-yl)ethanone], for which the EC50 at N48K Clarin-1 [2] was not above 2 µM. For `Cc1ccc(-c2nn(CCN3CCN(C)CC3)c3nnc(-c4ccccc4)c(Cl)c23)o1` [Io, 4-chloro-3-(5-methyl-2-furyl)-1-[2-(4-methylpiperazin-1-yl)ethyl]-5-phenyl-pyrazolo[3,4-c]pyridazine], the concentration for half-maximal inhibition (IC50) at N48K Clarin-1 [1] was not above 4 µM. The same measure, in the same setting: under `F[C@@H]1CCN(CCn2nc(I)c3c(Cl)c(-c4ccccc4)nnc32)C1` [Ip, 4-chloro-1-[2-[(3R)-3-fluoropyrrolidin-1-yl]ethyl]-3-iodo-5-phenyl-pyrazolo[3,4-c]pyridazine] stands 4 to 8 µM; under `F[C@@H]1CCN(CCn2nc(C3=CCOCC3)c3c(Cl)c(-c4ccccc4)nnc32)C1` [Iq, 4-chloro-3-(3,6-dihydro-2H-pyran-4-yl)-1-[2-[(3R)-3-fluoropyrrolidin-1-yl]ethyl]-5-phenyl-pyrazolo[3,4-c]pyridazine], 4 to 8 µM; under `Clc1c(-c2ccccc2)nnc2c1c(I)nn2CCN1CCCC1` [Ir, 4-chloro-3-iodo-5-phenyl-1-(2-pyrrolidin-1-ylethyl)pyrazolo[3,4-c]pyridazine], not above 4 µM. Consider `Clc1c(-c2ccccc2)nnc2c1c(C1=CCOCC1)nn2CCN1CCCC1` [Is, 4-chloro-3-(3,6-dihydro-2H-pyran-4-yl)-5-phenyl-1-(2-pyrrolidin-1-ylethyl)pyrazolo[3,4-c]pyridazine], for which the IC50 on N48K Clarin-1 [1] was not above 4 µM.

Consider `O=C(Cn1nc(I)c2c(Cl)c(-c3ccccc3)nnc21)N1CC[C@@H](F)C1` [It, 2-(4-chloro-3-iodo-5-phenyl-pyrazolo[3,4-c]pyridazin-1-yl)-1-[(3R)-3-fluoropyrrolidin-1-yl]ethanone], for which, on N48K Clarin-1 [1], the IC50 was in the range of 4 to 8 µM. On to `Cc1n[nH]c2nnc(-c3ccccc3)c(Cl)c12` [Iu, 4-chloro-3-methyl-5-phenyl-1H-pyrazolo[3,4-c]pyridazine], for which the EC50 at N48K Clarin-1 [2] was 2 to 5 µM.

Consider `Cc1nn(CCN2CCN(C)CC2)c2nnc(-c3ccccc3)c(Cl)c12` [Iv, 4-chloro-3-methyl-1-[2-(4-methylpiperazin-1-yl)ethyl]-5-phenyl-pyrazolo[3,4-c]pyridazine], for which, at N48K Clarin-1 [2], the EC50 is not above 2 µM. On the same count and under the same terms, the same measure for `Cc1nn(CC(=O)N2CCCC2)c2nnc(-c3ccccc3)c(Cl)c12` [Iw, 2-(4-chloro-3-methyl-5-phenyl-pyrazolo[3,4-c]pyridazin-1-yl)-1-pyrrolidin-1-yl-ethanone]: 2 to 5 µM. For `CS(=O)(=O)CCn1nc(C2CC2)c2c(Cl)c(-c3ccccc3)nnc21` [Ix, 4-chloro-3-cyclopropyl-1-(2-methylsulfonylethyl)-5-phenyl-pyrazolo[3,4-c]pyridazine], at N48K Clarin-1 [1], the IC50 fell in the range of 8 to 12 µM. As to `CN1CCN(CCn2nc(-c3ccccn3)c3c(Cl)c(-c4ccccc4)nnc32)CC1` [Iy, 4-chloro-1-[2-(4-methylpiperazin-1-yl)ethyl]-5-phenyl-3-(2-pyridyl)pyrazolo[3,4-c]pyridazine], the IC50 at N48K Clarin-1 [1] is not above 4 µM. Still for that read-out and setting: the same measure for `CN1CCN(CCn2nc(N3CCCC3)c3c(Cl)c(-c4ccccc4)nnc32)CC1` [Iz, 4-chloro-1-[2-(4-methylpiperazin-1-yl)ethyl]-5-phenyl-3-pyrrolidin-1-yl-pyrazolo[3,4-c]pyridazine]: not above 4 µM.
